What all share (type): cell-based
For assay [1], the system named is NSCLC cell lines. The assay can be described thus: Anti-proliferative/pro-apoptotic effects in NSCLC cell lines with different EGFR and p53 mutation status. The procedure: (§1) Non-Small Cell Lung Cancer cell lines with different EGFR and p53 mutation status were used. Variable doses of Compound I or cisplatin were used to induce death or proliferative death of the cells. A549 cells were transfected with siRNAs, and transfected cells were cultured for 48 hours prior to the administration of the drugs to attain the maximal down-regulation of the target proteins.

In assay [2] the test system is NSCLC cell lines. The assay can be described thus: Apoptosis-associated changes by DiOC63 (Δψm) and propidium iodide (viability) staining. The text has this: The fluorochromes, 3,3′-dihexyloxacarbocyanine iodide (DiOC63) and propidium iodide (PI) were employed to determine different apoptosis-associated changes. DiOC63 was used for the loss of mitochondrial transmembrane potential (Δψm) and PI was used for the loss of viability.

In the next assay the test system is A549 cells. The assay can be described thus: siRNA knockdown of apoptosis pathway components in A549 cells, Compound I induced cell death. The method, then: as §1

Structures are written as SMILES.

On to `COc1cccc(Nc2ncnn3ccc(CN4CC[C@@H](N)[C@H](O)C4)c23)c1` [Compound I, 4-Amino-1-[[4-[(3-methoxyphenyl)amino]pyrrolo [2,1-f][1,2,4]triazin-5-yl]methyl]-(3R,4R)-3-piperidinol], for which, in the assay on NSCLC cell lines [1] (NCI-H1975, NCI-H1650, NCIH1299, A549), the “order of sensitivity of cell lines” value is listed as “NCI-H1975>>NCI-H1650=NCIH1299>A549”. In addition, the anti-proliferative/pro-apoptotic effects entry in the assay on NSCLC cell lines [1] (all NSCLC cell lines tested, including wild-type EGFR and T790M mutant) is “induced anti-proliferative/pro-apoptotic effects in all NSCLC cell lines tested”. For the same compound, the “dissipation of Δψm (marker of early apoptosis)” value in the assay on NSCLC cell lines [2] (DiOC63 staining) is “induced dissipation of Δψm”. Also, the “incorporation of PI (marker of late apoptosis, loss of viability)” value in the assay on NSCLC cell lines [2] (propidium iodide staining) is on record as “incorporation of PI”. Further, in the assay on NSCLC cell lines [2] (with z-VAD.fmk), the “effect of pan-caspase inhibitor z-VAD.fmk on the loss of viability” value is given as “no effect” and the “effect of pan-caspase inhibitor z-VAD.fmk on the reduction of the Δψm” value was “only a minor protective effect”. In addition, the “effect of caspase-2 down-regulation on Compound I induced cell-death” value with A549 cells (24 and 48 hours) is reported as “limited protection against Compound I induced cell-death at 24 hours, but not at 48 hours”. The “effect of Bcl-2 down-regulation, alone or in combination with Bcl-XL, on the effect of Compound I” value in the assay with A549 cells (both 24 and 48 hours) is “strongly sensitized A549 cells”.

The record behind these values is patent US20100136137A1, “THERAPEUTIC COMBINATION OF A PANHER/VEGFR2 KINASE INHIBITOR AND A PLATINUM COMPOUND” (Bristol-Meyers Squibb Company, priority 2006, published 2010).
